Data from PubChem BioAssay (NCI).
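Cultured in 96-well plates, cells were exposed to test compound for 48 hours across five concentrations. Definition used: TGI = concentration required for complete inhibition of growth.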

Assays:
Assay in all cases: inhibition of tumour cell growth, NCI panel, 48 h
HCT-116 colon = tested on: HCT-116 colon
SNB-19 CNS = tested on: SNB-19 CNS
UO-31 renal = tested on: UO-31 renal
NCI-H522 lung = tested on: NCI-H522 lung
K-562 leukemia = tested on: K-562 leukemia
OVCAR-5 ovarian = tested on: OVCAR-5 ovarian
MDA-N = tested on: MDA-N
A498 renal = tested on: A498 renal
NCI-H460 lung = tested on: NCI-H460 lung
OVCAR-4 ovarian = tested on: OVCAR-4 ovarian
SF-295 CNS = tested on: SF-295 CNS
OVCAR-8 ovarian = tested on: OVCAR-8 ovarian
NCI-H23 lung = tested on: NCI-H23 lung
786-0 renal = tested on: 786-0 renal
HL-60(TB) leukemia = tested on: HL-60(TB) leukemia
HS 578T breast = tested on: HS 578T breast
SK-MEL-5 melanoma = tested on: SK-MEL-5 melanoma
T-47D breast = tested on: T-47D breast
SNB-75 CNS = tested on: SNB-75 CNS
NCI/ADR-RES ovarian = tested on: NCI/ADR-RES ovarian
CAKI-1 renal = tested on: CAKI-1 renal
HOP-62 NSCLC = tested on: HOP-62 NSCLC
U251 CNS = tested on: U251 CNS
HCT-15 colon = tested on: HCT-15 colon
MDA-MB-435 = tested on: MDA-MB-435
NCI-H226 lung = tested on: NCI-H226 lung
SK-MEL-28 melanoma = tested on: SK-MEL-28 melanoma
BT-549 breast = tested on: BT-549 breast
SF-539 CNS = tested on: SF-539 CNS
SW-620 colon = tested on: SW-620 colon
M14 melanoma = tested on: M14 melanoma
DU-145 prostate = tested on: DU-145 prostate
SK-MEL-2 melanoma = tested on: SK-MEL-2 melanoma
UACC-62 melanoma = tested on: UACC-62 melanoma
TK-10 renal = tested on: TK-10 renal
KM12 colon = tested on: KM12 colon
LOX IMVI melanoma = tested on: LOX IMVI melanoma
A549 NSCLC = tested on: A549 NSCLC
MCF7 breast = tested on: MCF7 breast
HT29 colon = tested on: HT29 colon
ACHN renal = tested on: ACHN renal
PC-3 prostate = tested on: PC-3 prostate
RPMI-8226 leukemia = tested on: RPMI-8226 leukemia
EKVX NSCLC = tested on: EKVX NSCLC
SN12C renal = tested on: SN12C renal
RXF 393 renal = tested on: RXF 393 renal
MOLT-4 leukemia = tested on: MOLT-4 leukemia
CCRF-CEM leukemia = tested on: CCRF-CEM leukemia
OVCAR-3 ovarian = tested on: OVCAR-3 ovarian
SK-OV-3 ovarian = tested on: SK-OV-3 ovarian
MALME-3M melanoma = tested on: MALME-3M melanoma
COLO 205 colon = tested on: COLO 205 colon
SF-268 CNS = tested on: SF-268 CNS
IGROV1 ovarian = tested on: IGROV1 ovarian
UACC-257 melanoma = tested on: UACC-257 melanoma
HCC-2998 colon = tested on: HCC-2998 colon
HOP-92 NSCLC = tested on: HOP-92 NSCLC
SR leukemia = tested on: SR leukemia
MDA-MB-231 breast = tested on: MDA-MB-231 breast

In the case of `Nc1nc(N)c(-c2cccc(C(F)(F)F)c2)c(Cc2cccc(C(F)(F)F)c2)n1`, the TGI (HCT-116 colon) is reported as 12.2 µM, the TGI (SNB-19 CNS) is reported as 19.2 µM and the TGI (UO-31 renal) is reported as 19.4 µM. For the same compound, the TGI (NCI-H522 lung) was 15.4 µM, the TGI (K-562 leukemia) was 17.7 µM and the TGI (OVCAR-5 ovarian) was 18.8 µM. For the same compound, the TGI (MDA-N) was 17.9 µM, the TGI (A498 renal) was 15.9 µM and the TGI (NCI-H460 lung) was 13.5 µM. For the same compound, the TGI (OVCAR-4 ovarian) was 31 µM, the TGI (SF-295 CNS) was 22.7 µM and the TGI (OVCAR-8 ovarian) was 24.6 µM. The TGI (NCI-H23 lung) was 13 µM, the TGI (786-0 renal) was 15.3 µM and the TGI (HL-60(TB) leukemia) was 17.7 µM. It also gave a TGI (HS 578T breast) of 35 µM, a TGI (SK-MEL-5 melanoma) of 17.6 µM and a TGI (T-47D breast) of 32.4 µM. It also gave a TGI (SNB-75 CNS) of 29 µM, a TGI (NCI/ADR-RES ovarian) of 23.1 µM and a TGI (CAKI-1 renal) of 21.9 µM. For the same compound, the TGI (HOP-62 NSCLC) was 30.1 µM, the TGI (U251 CNS) was 29.6 µM and the TGI (HCT-15 colon) was 16.5 µM. For the same compound, the TGI (MDA-MB-435) was 22.5 µM, the TGI (NCI-H226 lung) was 30.1 µM and the TGI (SK-MEL-28 melanoma) was 24.8 µM. It also gave a TGI (BT-549 breast) of 22.4 µM, a TGI (SF-539 CNS) of 16.6 µM and a TGI (SW-620 colon) of 26.7 µM. The TGI (M14 melanoma) was 17.4 µM, the TGI (DU-145 prostate) was 21.5 µM and the TGI (SK-MEL-2 melanoma) was 20.7 µM. For the same compound, the TGI (UACC-62 melanoma) was 14.8 µM, the TGI (TK-10 renal) was 20.9 µM and the TGI (KM12 colon) was 21.7 µM. It also gave a TGI (LOX IMVI melanoma) of 17.9 µM, a TGI (A549 NSCLC) of 13.3 µM and a TGI (MCF7 breast) of 18.5 µM. The TGI (HT29 colon) was 10.9 µM, the TGI (ACHN renal) was 13.5 µM and the TGI (PC-3 prostate) was 24.1 µM. The TGI (RPMI-8226 leukemia) was 21.6 µM, the TGI (EKVX NSCLC) was 21.1 µM and the TGI (SN12C renal) was 15.3 µM. For the same compound, the TGI (RXF 393 renal) was 22.5 µM, the TGI (MOLT-4 leukemia) was 17.7 µM and the TGI (CCRF-CEM leukemia) was 44.3 µM. It also gave a TGI (OVCAR-3 ovarian) of 22.1 µM, a TGI (SK-OV-3 ovarian) of 28.1 µM and a TGI (MALME-3M melanoma) of 25.7 µM. For the same compound, the TGI (COLO 205 colon) was 19.6 µM, the TGI (SF-268 CNS) was 20 µM and the TGI (IGROV1 ovarian) was 19.3 µM. The TGI (UACC-257 melanoma) was 20.2 µM, the TGI (HCC-2998 colon) was 11.3 µM and the TGI (HOP-92 NSCLC) was 25.8 µM. It also gave a TGI (SR leukemia) of 17.5 µM and a TGI (MDA-MB-231 breast) of 26.2 µM.
Work on `OCCN(CCO)CCn1cnc2c(NCc3ccccc3)ncnc21` yielded a TGI (HCT-116 colon) greater than 100 µM, a TGI (SNB-19 CNS) greater than 100 µM and a TGI (UO-31 renal) greater than 100 µM. For the same compound, the TGI (NCI-H522 lung) was greater than 100 µM, the TGI (K-562 leukemia) was greater than 100 µM and the TGI (OVCAR-5 ovarian) was greater than 100 µM. The TGI (MDA-N) was greater than 100 µM, the TGI (A498 renal) was greater than 100 µM and the TGI (NCI-H460 lung) was greater than 100 µM. For the same compound, the TGI (OVCAR-4 ovarian) was greater than 100 µM, the TGI (SF-295 CNS) was greater than 100 µM and the TGI (OVCAR-8 ovarian) was greater than 100 µM. It also gave a TGI (NCI-H23 lung) greater than 100 µM, a TGI (786-0 renal) greater than 100 µM and a TGI (HL-60(TB) leukemia) greater than 100 µM. For the same compound, the TGI (HS 578T breast) was greater than 100 µM, the TGI (SK-MEL-5 melanoma) was greater than 100 µM and the TGI (T-47D breast) was greater than 100 µM. The TGI (SNB-75 CNS) was greater than 100 µM, the TGI (NCI/ADR-RES ovarian) was greater than 100 µM and the TGI (CAKI-1 renal) was greater than 100 µM. For the same compound, the TGI (HOP-62 NSCLC) was greater than 100 µM, the TGI (U251 CNS) was greater than 100 µM and the TGI (HCT-15 colon) was greater than 100 µM. It also gave a TGI (MDA-MB-435) greater than 100 µM, a TGI (NCI-H226 lung) greater than 100 µM and a TGI (SK-MEL-28 melanoma) greater than 100 µM. For the same compound, the TGI (BT-549 breast) was greater than 100 µM, the TGI (SF-539 CNS) was greater than 100 µM and the TGI (SW-620 colon) was greater than 100 µM. The TGI (M14 melanoma) was greater than 100 µM, the TGI (DU-145 prostate) was greater than 100 µM and the TGI (SK-MEL-2 melanoma) was greater than 100 µM. It also gave a TGI (UACC-62 melanoma) greater than 100 µM, a TGI (TK-10 renal) greater than 100 µM and a TGI (KM12 colon) greater than 100 µM. For the same compound, the TGI (LOX IMVI melanoma) was greater than 100 µM, the TGI (A549 NSCLC) was greater than 100 µM and the TGI (MCF7 breast) was greater than 100 µM. For the same compound, the TGI (HT29 colon) was greater than 100 µM, the TGI (ACHN renal) was greater than 100 µM and the TGI (PC-3 prostate) was greater than 100 µM. The TGI (RPMI-8226 leukemia) was greater than 100 µM, the TGI (EKVX NSCLC) was greater than 100 µM and the TGI (SN12C renal) was greater than 100 µM. For the same compound, the TGI (RXF 393 renal) was greater than 100 µM, the TGI (MOLT-4 leukemia) was greater than 100 µM and the TGI (CCRF-CEM leukemia) was greater than 100 µM. The TGI (OVCAR-3 ovarian) was greater than 100 µM, the TGI (SK-OV-3 ovarian) was greater than 100 µM and the TGI (MALME-3M melanoma) was greater than 100 µM. It also gave a TGI (COLO 205 colon) greater than 100 µM, a TGI (SF-268 CNS) greater than 100 µM and a TGI (IGROV1 ovarian) greater than 100 µM. It also gave a TGI (UACC-257 melanoma) greater than 100 µM, a TGI (HCC-2998 colon) greater than 100 µM and a TGI (HOP-92 NSCLC) greater than 100 µM. It also gave a TGI (SR leukemia) greater than 100 µM and a TGI (MDA-MB-231 breast) greater than 100 µM.
`CCCCCNC(=O)c1cc2cc(CCl)ccc2oc1=O` gave a TGI (HCT-116 colon) greater than 38.5 µM, a TGI (SNB-19 CNS) greater than 69 µM and a TGI (UO-31 renal) of 3.07 µM. The TGI (NCI-H522 lung) was 17.1 µM, the TGI (K-562 leukemia) was greater than 100 µM and the TGI (OVCAR-5 ovarian) was 7.99 µM. The TGI (MDA-N) was greater than 94.2 µM, the TGI (A498 renal) was 3.98 µM and the TGI (NCI-H460 lung) was 3.3 µM. The TGI (OVCAR-4 ovarian) was 26.6 µM, the TGI (SF-295 CNS) was 24.7 µM and the TGI (OVCAR-8 ovarian) was greater than 100 µM. For the same compound, the TGI (NCI-H23 lung) was 11.5 µM, the TGI (786-0 renal) was 2.82 µM and the TGI (HL-60(TB) leukemia) was 10.5 µM. It also gave a TGI (HS 578T breast) greater than 54.7 µM, a TGI (SK-MEL-5 melanoma) greater than 51.2 µM and a TGI (T-47D breast) of 2.98 µM. The TGI (SNB-75 CNS) was 13.1 µM, the TGI (NCI/ADR-RES ovarian) was greater than 66.8 µM and the TGI (CAKI-1 renal) was 2.57 µM. The TGI (HOP-62 NSCLC) was 14 µM, the TGI (U251 CNS) was 36.6 µM and the TGI (HCT-15 colon) was 6.22 µM. It also gave a TGI (MDA-MB-435) greater than 60.8 µM, a TGI (NCI-H226 lung) of 30.1 µM and a TGI (SK-MEL-28 melanoma) greater than 100 µM. For the same compound, the TGI (BT-549 breast) was greater than 46.3 µM, the TGI (SF-539 CNS) was 16.8 µM and the TGI (SW-620 colon) was greater than 100 µM. The TGI (M14 melanoma) was greater than 51.4 µM, the TGI (DU-145 prostate) was 5.95 µM and the TGI (SK-MEL-2 melanoma) was 19.8 µM. The TGI (UACC-62 melanoma) was 7.15 µM, the TGI (TK-10 renal) was 2.85 µM and the TGI (KM12 colon) was greater than 44.5 µM. The TGI (LOX IMVI melanoma) was greater than 72.8 µM, the TGI (A549 NSCLC) was 14.1 µM and the TGI (MCF7 breast) was greater than 87.4 µM. For the same compound, the TGI (HT29 colon) was 9.58 µM, the TGI (ACHN renal) was 4.52 µM and the TGI (PC-3 prostate) was 2.81 µM. The TGI (RPMI-8226 leukemia) was greater than 100 µM, the TGI (EKVX NSCLC) was 9.94 µM and the TGI (SN12C renal) was 3.67 µM. It also gave a TGI (RXF 393 renal) of 1.78 µM, a TGI (MOLT-4 leukemia) greater than 100 µM and a TGI (CCRF-CEM leukemia) greater than 100 µM. The TGI (OVCAR-3 ovarian) was 26.6 µM, the TGI (SK-OV-3 ovarian) was 10.3 µM and the TGI (MALME-3M melanoma) was 7.5 µM. The TGI (COLO 205 colon) was 2.79 µM, the TGI (SF-268 CNS) was 12.4 µM and the TGI (IGROV1 ovarian) was 18.6 µM. The TGI (UACC-257 melanoma) was 6.56 µM, the TGI (HCC-2998 colon) was 18.9 µM and the TGI (HOP-92 NSCLC) was 3.71 µM. For the same compound, the TGI (SR leukemia) was greater than 100 µM and the TGI (MDA-MB-231 breast) was 3.72 µM.
